Our source for the inhibition values is patent EP3212201B1, “NUCLEOSIDE KINASE INHIBITORS” (BCI Pharma, priority 2014, dated 2016).

What all share (test): FRET-based coupled-enzyme protein kinase inhibition assay
Assay type in all cases: biochemical
Details in all cases: compound at 10 µM, 1% DMSO

Experiment [1] has as its target ABL1 (Homo sapiens, UniProt P00519). How it is done: (§1) A biochemical assay was then performed in order to measure the protein kinase inhibition. It employed a fluorescence-based coupled-enzyme format and was based on the differential sensitivity of phosphorylated and non-phosphorylated peptides to proteolytic cleavage.
(§2) Peptide substrates were labeled with two fluorophores. The two fluorohores used were coumarin (donor) and fluorecein (acceptor), and each of the peptides was bearing one at one end, and one at the other end, which made up fluorescence resonance energy transfer (FRET) pair peptides.
(§3) In a primary reaction, the FRET-peptides were submitted to a phosphorylation reaction, in which one of adenosine triphosphate (ATP)'s phosphate groups was transferred to the peptide in the presence of kinase. When kinase inhibition takes place, the peptide will not be phosphorylated. In a secondary reaction, both the phosphorylated FRET-peptides and the non-phosphorylated FRET-peptides were reacted with a development reagent. It has been observed that non-phosphorylated FRET-peptides were cleaved, whereas the phosphorylted FRET-peptide remained intact.
(§4) Cleavage disrupts FRET between the donor (i.e., coumarin) and acceptor (i.e., fluorescein) fluorophores on the FRET-peptide, whereas uncleaved, phosphorylated FRET-peptides maintain FRET. A ratiometric method, which calculates the Emission Ratio of donor emission to acceptor emission after excitation of the donor fluorophore at 400 nm, is used to quantitate reaction progress, as shown in the equation below. [formula]
(§5) A significant benefit of this ratiometric method for quantitating reaction progress is the elimination of well-to-well variations in FRET-peptide concentration and signal intensities. As a result, the assay yields very high Z'factor values (>0.7) at a low percent phosphorylation. Both cleaved and uncleaved FRET-peptides contribute to the fluorescence signals and therefore to the Emission Ratio. The extent of phosphorylation of the FRET-peptide can be calculated from the Emission Ratio. The Emission Ratio will remain low if the FRET-peptide is phosphorylated (i.e., no kinase inhibition) and will be high if the FRET-peptide is non-phosphorylated (i.e., kinase inhibition).
(§6) The Test Compounds were screened in 1% DMSO. For 10 point titrations, 3-fold serial dilutions were prepared from the starting concentration.
(§7) All Peptide/Kinase Mixtures were diluted to a 2X working concentration in the appropriate Kinase Buffer (50 mM HEPES pH 7.5, 0.01% BRIJ-35, 10 mM MgCl2, 1 mM […]).
(§8) All ATP Solutions were diluted to a 4X working concentration in Kinase Buffer. ATP Km apparent was previously determined using another assay.
(§9) 2.5 µL - 4X Test Compound or 100 nL 100X plus 2.4 µL kinase buffer were mixed together with 2. 5 µL - 2X Peptide/Kinase Mixture and 3. 2.5 µL - 4X ATP Solution.
(§10) The solution was plate-shaked for 30 seconds, then incubated 60 minutes at room temperature for kinase reaction. 5 µL of Development Reagent Solution were then added, followed by a 30-second plate shake and a 60-minute Development Reaction incubation at room temperature. The results were read on a fluorescence plate reader and the data was analyzed.
(§11) The compounds that show the highest Emission Ratio are the ones that also show the highest protein kinase inhibition properties.

The target in experiment [2] is AKT1 (PKB alpha) (Homo sapiens, UniProt P31749). How it is done: as §1, §2, §3, §4, §5, §6, §7, §8, §9, §10, §11
The target of experiment [3] is CSNK2A1 (CK2 alpha 1) (Homo sapiens, UniProt P68400). The protocol: as §1, §2, §3, §4, §5, §6, §7, §8, §9, §10, §11
The target of experiment [4] is T1, DYRK3 (Homo sapiens, UniProt O43781).
T1 sequence (O43781 1-588): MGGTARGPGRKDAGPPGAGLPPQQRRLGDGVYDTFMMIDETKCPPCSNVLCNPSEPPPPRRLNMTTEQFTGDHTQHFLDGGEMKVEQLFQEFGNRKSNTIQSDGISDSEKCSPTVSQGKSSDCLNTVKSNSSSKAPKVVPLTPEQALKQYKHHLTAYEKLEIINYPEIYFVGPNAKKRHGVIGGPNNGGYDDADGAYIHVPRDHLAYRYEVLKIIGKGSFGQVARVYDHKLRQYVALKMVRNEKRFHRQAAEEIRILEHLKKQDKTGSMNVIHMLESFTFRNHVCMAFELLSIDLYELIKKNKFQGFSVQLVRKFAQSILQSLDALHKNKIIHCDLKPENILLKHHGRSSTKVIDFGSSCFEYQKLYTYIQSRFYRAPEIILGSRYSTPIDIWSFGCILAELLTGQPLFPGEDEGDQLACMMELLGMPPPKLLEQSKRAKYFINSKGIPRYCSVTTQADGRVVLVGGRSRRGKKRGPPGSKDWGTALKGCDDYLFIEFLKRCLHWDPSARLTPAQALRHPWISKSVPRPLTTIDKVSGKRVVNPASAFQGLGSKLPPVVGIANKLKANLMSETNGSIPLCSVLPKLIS
How it is done: as §1, §2, §3, §4, §5, §6, §7, §8, §9, §10, §11

The target of experiment [5] is GSK3B (GSK3 beta) (Homo sapiens, UniProt P49841). How it is done:
as §1, §2, §3, §4, §5, §6, §7, §8, §9, §10, §11

For experiment [6], the target named is IGF1R (Homo sapiens, UniProt P08069). The protocol: as §1, §2, §3, §4, §5, §6, §7, §8, §9, §10, §11
Experiment [7] addresses T2, IRAK4 (Homo sapiens, UniProt Q9NWZ3).
T2 sequence (Q9NWZ3 1-460): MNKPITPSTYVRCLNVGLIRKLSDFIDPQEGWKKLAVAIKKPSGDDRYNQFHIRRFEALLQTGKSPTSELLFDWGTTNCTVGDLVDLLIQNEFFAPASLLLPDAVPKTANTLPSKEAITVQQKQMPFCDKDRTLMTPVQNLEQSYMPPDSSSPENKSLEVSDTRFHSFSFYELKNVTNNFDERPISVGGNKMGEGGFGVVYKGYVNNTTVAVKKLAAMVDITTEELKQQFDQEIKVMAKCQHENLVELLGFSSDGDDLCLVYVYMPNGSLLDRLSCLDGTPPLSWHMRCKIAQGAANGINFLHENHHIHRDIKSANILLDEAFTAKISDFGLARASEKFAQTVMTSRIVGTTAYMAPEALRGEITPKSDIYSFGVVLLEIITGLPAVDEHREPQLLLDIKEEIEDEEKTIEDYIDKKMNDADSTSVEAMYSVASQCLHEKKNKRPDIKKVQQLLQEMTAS
The protocol:
as §1, §2, §3, §4, §5, §6, §7, §8, §9, §10, §11

Experiment [8] addresses KIT (Homo sapiens, UniProt P10721). The protocol: as §1, §2, §3, §4, §5, §6, §7, §8, §9, §10, §11
Experiment [9] concerns the target MAPK1 (ERK2) (Homo sapiens, UniProt P28482). How it is done:
as §1, §2, §3, §4, §5, §6, §7, §8, §9, §10, §11

The target in experiment [10] is MET (cMet) (Homo sapiens, UniProt P08581). How it is done:
as §1, §2, §3, §4, §5, §6, §7, §8, §9, §10, §11

Experiment [11] has as its target PRKACA (PKA) (Homo sapiens, UniProt P17612). The protocol: as §1, §2, §3, §4, §5, §6, §7, §8, §9, §10, §11
The target of experiment [12] is RPS6KB1 (p70S6K) (Homo sapiens, UniProt P23443). How it is done: as §1, §2, §3, §4, §5, §6, §7, §8, §9, §10, §11
RPS6KB1 (p70S6K), sequence (P23443 whole entry, species assumed): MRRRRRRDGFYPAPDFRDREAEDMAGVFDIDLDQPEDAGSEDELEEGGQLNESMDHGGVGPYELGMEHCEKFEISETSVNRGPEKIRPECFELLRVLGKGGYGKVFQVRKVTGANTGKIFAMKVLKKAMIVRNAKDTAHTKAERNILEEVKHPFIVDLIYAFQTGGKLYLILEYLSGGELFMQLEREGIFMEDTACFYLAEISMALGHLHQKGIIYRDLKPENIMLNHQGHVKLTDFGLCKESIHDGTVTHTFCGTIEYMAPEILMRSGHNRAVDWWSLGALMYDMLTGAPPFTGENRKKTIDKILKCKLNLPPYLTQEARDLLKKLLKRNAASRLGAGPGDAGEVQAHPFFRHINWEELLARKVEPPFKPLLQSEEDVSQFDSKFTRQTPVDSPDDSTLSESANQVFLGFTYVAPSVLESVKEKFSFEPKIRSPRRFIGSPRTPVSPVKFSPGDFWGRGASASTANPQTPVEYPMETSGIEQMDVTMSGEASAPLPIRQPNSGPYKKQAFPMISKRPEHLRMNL

MAPK1 (ERK2), sequence (P28482 whole entry, species assumed): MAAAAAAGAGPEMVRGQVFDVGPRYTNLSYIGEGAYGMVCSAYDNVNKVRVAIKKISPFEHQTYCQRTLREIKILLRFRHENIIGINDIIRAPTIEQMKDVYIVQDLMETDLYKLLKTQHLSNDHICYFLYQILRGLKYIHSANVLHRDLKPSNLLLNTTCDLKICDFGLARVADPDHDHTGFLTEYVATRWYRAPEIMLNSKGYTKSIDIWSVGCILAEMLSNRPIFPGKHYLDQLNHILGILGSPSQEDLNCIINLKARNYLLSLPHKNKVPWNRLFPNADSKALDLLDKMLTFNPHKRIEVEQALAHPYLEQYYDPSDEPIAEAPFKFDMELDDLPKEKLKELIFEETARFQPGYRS
CSNK2A1 (CK2 alpha 1), sequence (P68400 whole entry, species assumed): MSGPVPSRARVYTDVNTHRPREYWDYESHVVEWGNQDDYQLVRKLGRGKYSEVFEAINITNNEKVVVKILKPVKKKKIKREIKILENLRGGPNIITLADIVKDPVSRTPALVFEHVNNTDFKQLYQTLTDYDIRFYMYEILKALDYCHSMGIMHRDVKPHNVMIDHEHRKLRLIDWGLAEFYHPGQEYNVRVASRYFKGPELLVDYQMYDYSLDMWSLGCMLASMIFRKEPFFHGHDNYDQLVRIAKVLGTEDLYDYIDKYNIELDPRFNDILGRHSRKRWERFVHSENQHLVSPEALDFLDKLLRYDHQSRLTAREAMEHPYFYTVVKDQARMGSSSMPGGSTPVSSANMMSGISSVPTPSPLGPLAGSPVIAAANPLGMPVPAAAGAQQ
AKT1 (PKB alpha), sequence (P31749 whole entry, species assumed): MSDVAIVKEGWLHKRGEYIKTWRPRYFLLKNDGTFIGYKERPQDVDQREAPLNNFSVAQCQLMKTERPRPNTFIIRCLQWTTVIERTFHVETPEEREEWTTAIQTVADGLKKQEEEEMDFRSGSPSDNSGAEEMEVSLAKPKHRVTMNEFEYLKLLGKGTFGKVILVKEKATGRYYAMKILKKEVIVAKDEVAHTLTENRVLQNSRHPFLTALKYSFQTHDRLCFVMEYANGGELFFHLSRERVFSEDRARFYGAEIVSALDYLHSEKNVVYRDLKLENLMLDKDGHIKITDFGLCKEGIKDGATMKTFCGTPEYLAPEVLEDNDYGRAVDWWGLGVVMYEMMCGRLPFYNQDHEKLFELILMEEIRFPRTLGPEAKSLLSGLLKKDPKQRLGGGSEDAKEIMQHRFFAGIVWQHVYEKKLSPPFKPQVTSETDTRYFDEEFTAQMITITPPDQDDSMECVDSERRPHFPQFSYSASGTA
GSK3B (GSK3 beta), sequence (P49841 whole entry, species assumed): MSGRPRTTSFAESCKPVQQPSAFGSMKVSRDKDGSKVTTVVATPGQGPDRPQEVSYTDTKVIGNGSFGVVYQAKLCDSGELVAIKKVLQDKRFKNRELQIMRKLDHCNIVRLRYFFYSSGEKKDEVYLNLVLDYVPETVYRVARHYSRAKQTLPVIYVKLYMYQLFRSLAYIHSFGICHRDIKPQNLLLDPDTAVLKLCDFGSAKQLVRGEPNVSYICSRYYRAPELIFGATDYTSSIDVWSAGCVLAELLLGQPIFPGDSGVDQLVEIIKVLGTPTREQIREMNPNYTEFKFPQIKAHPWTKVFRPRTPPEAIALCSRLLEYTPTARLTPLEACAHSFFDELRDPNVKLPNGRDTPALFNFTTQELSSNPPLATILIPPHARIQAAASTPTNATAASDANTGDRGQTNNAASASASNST
MET (cMet), sequence (P08581 25-1390): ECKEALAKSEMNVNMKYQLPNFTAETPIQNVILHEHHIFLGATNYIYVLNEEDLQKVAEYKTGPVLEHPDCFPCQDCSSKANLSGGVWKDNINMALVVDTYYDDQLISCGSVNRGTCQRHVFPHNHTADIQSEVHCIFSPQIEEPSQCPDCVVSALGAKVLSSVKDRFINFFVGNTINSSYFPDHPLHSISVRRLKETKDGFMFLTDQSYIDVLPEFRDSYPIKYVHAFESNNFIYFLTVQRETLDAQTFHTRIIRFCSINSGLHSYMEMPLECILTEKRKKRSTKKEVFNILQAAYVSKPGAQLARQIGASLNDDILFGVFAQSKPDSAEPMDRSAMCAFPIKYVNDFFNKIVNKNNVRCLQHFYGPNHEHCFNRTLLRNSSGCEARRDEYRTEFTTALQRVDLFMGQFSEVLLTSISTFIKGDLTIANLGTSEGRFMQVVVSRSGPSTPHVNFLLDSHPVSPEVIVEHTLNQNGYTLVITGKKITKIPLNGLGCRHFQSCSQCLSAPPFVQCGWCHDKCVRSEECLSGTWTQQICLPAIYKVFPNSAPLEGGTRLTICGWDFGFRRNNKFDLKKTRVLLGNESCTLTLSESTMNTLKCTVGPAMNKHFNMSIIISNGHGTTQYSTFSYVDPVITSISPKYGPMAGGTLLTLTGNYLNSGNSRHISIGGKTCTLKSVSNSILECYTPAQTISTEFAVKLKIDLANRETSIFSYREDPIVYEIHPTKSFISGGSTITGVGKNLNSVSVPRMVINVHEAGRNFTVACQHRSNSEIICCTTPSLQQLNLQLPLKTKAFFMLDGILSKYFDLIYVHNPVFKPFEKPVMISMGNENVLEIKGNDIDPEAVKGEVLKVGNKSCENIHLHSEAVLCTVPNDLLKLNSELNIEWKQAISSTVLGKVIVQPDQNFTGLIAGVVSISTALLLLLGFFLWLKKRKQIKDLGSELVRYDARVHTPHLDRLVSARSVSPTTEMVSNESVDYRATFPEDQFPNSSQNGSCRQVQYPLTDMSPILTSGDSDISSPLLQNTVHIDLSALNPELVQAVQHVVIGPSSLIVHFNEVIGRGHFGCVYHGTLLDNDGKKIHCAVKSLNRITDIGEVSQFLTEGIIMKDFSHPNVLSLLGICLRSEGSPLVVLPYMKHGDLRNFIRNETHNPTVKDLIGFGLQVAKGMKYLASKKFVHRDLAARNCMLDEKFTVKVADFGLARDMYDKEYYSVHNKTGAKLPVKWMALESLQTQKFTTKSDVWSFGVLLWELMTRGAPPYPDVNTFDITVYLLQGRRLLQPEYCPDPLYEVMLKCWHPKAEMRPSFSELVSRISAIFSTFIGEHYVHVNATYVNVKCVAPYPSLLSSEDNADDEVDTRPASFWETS
KIT, sequence (P10721 26-976, species assumed): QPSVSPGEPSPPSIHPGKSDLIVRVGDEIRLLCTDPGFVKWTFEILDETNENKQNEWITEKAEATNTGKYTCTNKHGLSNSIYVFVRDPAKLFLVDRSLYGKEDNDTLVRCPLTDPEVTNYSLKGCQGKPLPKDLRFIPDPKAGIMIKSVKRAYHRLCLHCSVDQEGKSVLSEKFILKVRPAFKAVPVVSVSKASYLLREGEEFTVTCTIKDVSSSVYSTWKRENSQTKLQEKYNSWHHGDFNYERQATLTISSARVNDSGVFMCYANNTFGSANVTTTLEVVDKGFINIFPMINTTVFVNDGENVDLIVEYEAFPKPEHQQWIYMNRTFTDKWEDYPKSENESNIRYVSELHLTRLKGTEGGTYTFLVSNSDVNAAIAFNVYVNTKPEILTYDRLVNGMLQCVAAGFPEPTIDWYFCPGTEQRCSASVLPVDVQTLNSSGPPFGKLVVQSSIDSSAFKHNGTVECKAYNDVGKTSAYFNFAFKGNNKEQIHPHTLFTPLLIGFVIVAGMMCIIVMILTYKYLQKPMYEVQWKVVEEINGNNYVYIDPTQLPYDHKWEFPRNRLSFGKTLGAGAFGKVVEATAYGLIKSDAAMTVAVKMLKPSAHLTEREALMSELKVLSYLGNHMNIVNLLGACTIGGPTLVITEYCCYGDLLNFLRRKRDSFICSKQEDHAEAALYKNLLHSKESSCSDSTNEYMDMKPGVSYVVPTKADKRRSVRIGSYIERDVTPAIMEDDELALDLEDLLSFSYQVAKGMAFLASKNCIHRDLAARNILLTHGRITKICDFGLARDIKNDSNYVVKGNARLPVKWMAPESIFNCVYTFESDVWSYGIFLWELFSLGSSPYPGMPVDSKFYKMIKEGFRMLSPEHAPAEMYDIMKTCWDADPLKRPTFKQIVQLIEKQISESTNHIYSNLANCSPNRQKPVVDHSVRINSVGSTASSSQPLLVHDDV

For orientation: inhibition means the relative decrease from the control value, in per cent. Turning to `Nc1ncnc2c1ncn2[C@@H]1O[C@H](COC(=O)NCCCc2nc3ccccc3[nH]2)[C@@H](O)[C@H]1O` [Compound C1], the inhibition at 10 µM in experiment [1] was 13%; in [2] it was -2%; in [3], -5%; in [4] it was 12%; in experiment [5] it was 7%; in experiment [6], 0%. Besides, the inhibition at 10 µM in [7] is -2%; in experiment [8] it was 10%; in experiment [9] it was 7%; in experiment [10], 0%; in [11] it was 21%; in [12], 15%.

On to `C[C@@H](NC(=O)OC[C@H]1O[C@@H](n2cnc3c(N)ncnc32)[C@H](O)[C@@H]1O)c1ccc(Cl)cc1` [Compound C4], for which the inhibition at 10 µM in experiment [1] is 11%; in experiment [2], -2%; in [3] it was 8%; in experiment [4] it was 5%; in experiment [5], 8%; in experiment [6], 11%. The inhibition at 10 µM came to 3% in experiment [7]; 20% in experiment [8]; 8% in experiment [9]; 3% in experiment [10]; 20% in experiment [11]; 22% in experiment [12].

On to `Nc1ncnc2c1ncn2[C@@H]1O[C@H](COC(=O)NC[C@H](O)CO)[C@@H](O)[C@H]1O` [Compound C8], for which the inhibition at 10 µM in experiment [1] turned out to be 22%; in experiment [2] it was 7%; in [3] it was 5%; in [4] it was 31%; in experiment [5] it was 21%; in experiment [6], 5%. For the same compound, the inhibition at 10 µM in [7] was -8%; in experiment [8] it was 28%; in [9] it was 16%; in experiment [10], -16%; in experiment [11], 43%; in experiment [12], 11%.

Regarding `Nc1ncnc2c1ncn2[C@@H]1O[C@H](COC(=O)N2CCC[C@H]2CO)[C@@H](O)[C@H]1O` [Compound C9], the inhibition at 10 µM in [1] is -2%; in experiment [2] it was 3%; in experiment [3], 5%; in experiment [4], 11%; in experiment [5], -6%; in experiment [6], 9%. Further, the inhibition at 10 µM was -2% in [7]; -3% in experiment [8]; 11% in experiment [9]; -11% in experiment [10]; -6% in [11]; 3% in [12].

`Nc1ncnc2c1ncn2[C@@H]1O[C@H](COC(=O)N[C@@H]2CCN(Cc3ccccc3)C2)[C@@H](O)[C@H]1O` [Compound C10]: the inhibition at 10 µM came out at 10% in experiment [1]; 4% in [2]; 2% in [3]; 8% in experiment [4]; 8% in experiment [5]; 8% in [6]. Also, the inhibition at 10 µM in experiment [7] was 6%; in experiment [8] it was 7%; in [9], 8%; in experiment [10], -1%; in experiment [11], 10%; in experiment [12], 5%.

`Nc1ncnc2c1ncn2[C@@H]1O[C@H](COC(=O)N2CCN(Cc3ccccc3)CC2CO)[C@@H](O)[C@H]1O` (stereo partly drawn) [Compound C13]: the inhibition at 10 µM in experiment [1] stood at 0%; in experiment [2] it was 2%; in [3], 3%; in experiment [4] it was 9%; in experiment [5] it was 4%; in experiment [6] it was 2%. The inhibition at 10 µM in experiment [7] is 13%; in experiment [8] it was 18%; in experiment [9] it was 10%; in experiment [10] it was 0%; in [11] it was -1%; in experiment [12], 10%.

As to `CC(C)N1CCC(NC(=O)OC[C@H]2O[C@@H](n3cnc4c(N)ncnc43)[C@H](O)[C@@H]2O)CC1` [Compound C19], the inhibition at 10 µM was -3% in experiment [1]; 3% in experiment [2]; 5% in [3]; 9% in experiment [4]; 6% in [5]; -2% in [6]. Besides, the inhibition at 10 µM in experiment [7] was -3%; in experiment [8], -1%; in [9], 7%; in experiment [10] it was 2%; in experiment [11], 4%; in experiment [12], 3%.

As to `Nc1ncnc2c1ncn2[C@@H]1O[C@H](COC(=O)NCCN2CCCC2=O)[C@@H](O)[C@H]1O` [Compound C22], the inhibition at 10 µM is -5% in experiment [1]; 0% in experiment [2]; 2% in experiment [3]; 3% in experiment [4]; 3% in experiment [5]; 4% in experiment [6]. Moreover, the inhibition at 10 µM in experiment [7] turned out to be 1%; in experiment [8], 3%; in experiment [9], 9%; in [10], 1%; in experiment [11], 0%; in experiment [12], 0%.
